Laboratory results published in patent US5428031A, “Methods of treating cardiac arrhythmia” (priority 1993, dated 1995).

Columns and labels:
[1] = molecular target: T1, IKs (slowly activating delayed rectifier K+ current) (Cavia porcellus, UniProt O70344); assay: cell-based; assay type: cell-based, guinea pig
T1 construct: Guinea pig ventricular myocytes were isolated; endogenous in cells; host or cells: isolated guinea pig ventricular myocytes
Protocol: Current amplitude is measured as the difference from the initial instantaneous current level following the capacitance discharge after changing the transmembrane voltage from -50 mV to +50 mV, to the current level at the end of the 1 second voltage step. Normally, an increase in the current amplitude occurs as a function of time and voltage during depolarization of the cardiac cell membrane and this increasing current has been defined as the delayed rectifier K^+ current (IK). […] IKs current occurs as a consequence of time- and voltage-dependent opening of ionic channels or pores in the cardiac cell membrane that allow the relatively selective flow of potassium ions (K^+) from the inside to the outside of the cell, that is, down the voltage and concentration gradient for K^+ ions that is inherent in cardiac cells. Thus, block of the IKs current ultimately reflects block of certain ion channels or pores in the cardiac cell membrane. However, the single pores or channels thought to underlie the IKs current have yet to be measured or identified at the single channel level.
Guinea pig ventricular myocytes were isolated using a modification of the procedure described by Mitra R and Morad M., "A Uniform Enzymatic Method for Dissociation of Myocytes from Hearts and Stomachs of Nertilorates", Am. J. Physiol. […] Excised hearts were perfused through the aorta (retrograde fashion) at a rate of 10 ml/min with oxygenated, warmed (37° C.) solutions described below. […] The head was then perfused with the same nominally Ca^2+ -free solution containing 150 units/ml Type II collagenase (Worthington) and 0.5 units/ml Type XIV protease (Sigma) for 8 minutes. This perfusate was followed by a Tyrode's solution containing 0.2 mM CaCl2 (without enzymes) for 5 minutes. The digested ventricles were cut into small pieces and gently shaken until cells were visibly dispersed. The cells were stored at room temperature until use, within 8 hours after isolation.
The suction microelectrode technique described by Giles, W. R. and Shibata, E. F., "Voltage clamp of bull-frog cardiac pacemaker cells: a quantitative, analysis of potassium currents". J. Physiol. […] Microelectrodes were made by using a two stage puller from square bore (1.0 mm o.d.) borosilicate capillary tubing. […] After establishing whole-cell recording mode, negative pressure was maintained on the pipette using a 1 ml gas-tight syringe attached via air tight tubing to the suction port of the microelectrode holder. This minimized dialysis of the cell with the pipette solution.
To record K^+ currents, the cells were bathed in a Ca^2+ -free Tyrode's :solution containing […] nisoldipine. […] A List EPC-7 clamp amplifier was used to voltage clamp the isolated cells. […] A variety of voltage pulse protocols were used to measure Ca^2+ current and three types of K^+ currents: inward rectifier (IK1), rapidly activating delayed rectifier (IKr) and the slowly activating delayed rectifier (IKs). Sanguinetti M. C. and Jurkiewicz, N. K., "Two components of cardiac delayed rectifier K^+ current: Differential sensitivity to block by Class III antiarrhythmic agents". […] Data was analyzed as % block from control membrane currents.
Nisoldipins was prepared as a 4 mM stock solution in polyethylne glycol 200. Compounds tested in this series were prepared as 10 mM stock solutions in polyethylene glycol 400 or dimethyl sulfoxide.

conscious dogs = assay: electrocardiographic QT interval in conscious dogs, oral; assay type: in vivo, dog
Protocol: Trained, female mongrel dogs, in the weight range of 8 to 16 kg and instruimented with chronic arterial access ports, were deprived of food 18 to 24 hours prior to the study. At test time, the dog was placed in an Alice King Chatham nylon mesh sling for light restraint. Four Grass Instrument Co. Type E2 Platinum Subdermal Electrodes were affixed to the limbs of the dog and connected to a Hewlett-Packard 4700A Cardiograph multi-lead electrocardiogram (ECG) recorder. After approximately a 30-minute stabilization period, one or two pretreatment Lead II ECG tracings were taken over approximately a 30-second interval. Dogs were then dosed via gavage with labrafil (vehicle) or test compound. The volume, administered was 2.0 ml/kg followed by a 15 ml tap-water flush. Lead II ECG recordings were obtained at 15, 30, and 60 minutes and every 30 minutes thereafter for five hours post-drug administration. Dogs were also monitored for blood pressure changes via a Modular Instruments data acquisition system and transducer connected to the arterial access port. Final ECG traces were taken at approximately 24 hours post-treatment. Average QT interval lengths were determined for each time point and QTc values were calculated to correct for variations in heart rate (QTc =QT/√R-R).

SMILES	IC50 [1] [µM]	block of IKs ([1]; 5 μM)	other ECG or cardiovascular effects (conscious dogs)	prolongation of ECG QT interval (conscious dogs)	selective block of IKs ([1]; selective: 50% block of IKs at 1 μM or less and at least 10 fold lower than for IKr and/or IK1)
Cc1cccc(NC(=O)N[C@@H]2N=C(c3ccccc3)c3ccccc3N(C)C2=O)c1 [Compound 4, (R)-N-(2,3-dihydro-1-methyl-2-oxo-5-phenyl-1H-1,4-benzodiazepin-3-yl)-N'-(3-methylphenyl)urea]	0.215	Complete block	no other ECG or cardiovascular effects	dose-related prolongation of ECG QT interval	–
CN1C(=O)[C@H](NC(=O)/C=C/c2ccc(Cl)cc2Cl)N=C(c2ccccc2)c2ccccc21 [Example 26, E-(+)-N-[(3R)-2,3-Dihydro-1-methyl-2-oxo-5-phenyl-1H-1,4-benzo-diazepin-3-yl]-3-(2,4-dichlorophenyl)-2-propenamide]	–	–	–	–	selective blocker of IKs
